Assay results published in patent publication US20210254056A1, “IDENTIFICATION AND TARGETED MODULATION OF GENE SIGNALING NETWORKS” (CAMP4 THERAPEUTICS CORPORATION, priority 2017, published 2021).

Tested on: hepatocytes
Experiment: RNA-seq of hepatocytes treated with Phase III failure compounds
Conditions: hepatocytes
Procedure: RNA-seq was performed to determine the effects of the compounds on hepatocytes.
Significance was determined by the criteria of FPKM≥0.5, a log 2(fold-change)≥1, and a […].

CCC(CC)[C@H](NC(C)=O)[C@@H]1[C@H](O)[C@@H](C(=O)O)C[C@H]1NC(=N)N.O.O.O [peramivir (trihydrate), peramivir]
RNA-seq results: BCKDK expression (gene BCKDK): −0.14 | RNA-seq results: BCO1 expression (gene BCO1): −0.07 | RNA-seq results: BCR expression (gene BCR): −0.02 | RNA-seq results: BLNK expression (gene BLNK): −0.02 | RNA-seq results: BLOC1S3 expression (gene BLOC1S3): 0.01 | RNA-seq results: BMPR1A expression (gene BMPR1A): −0.14 | RNA-seq results: BRAF expression (gene BRAF): −0.13 | RNA-seq results: BSCL2 expression (gene BSCL2): −1.57 | RNA-seq results: BTD expression (gene BTD): −0.14 | RNA-seq results: C4A expression (gene C4A): 0.79 | RNA-seq results: C9 expression (gene C9): −0.57 | RNA-seq results: C10orf10 expression (gene C10orf10): 0.08 | RNA-seq results: C10orf11 expression (gene C10orf11): −0.18 | RNA-seq results: C15orf41 expression (gene C15orf41): −0.25 | RNA-seq results: CA2 expression (gene CA2): −0.12 | RNA-seq results: CA5A expression (gene CA5A): 0.03 | RNA-seq results: CA12 expression (gene CA12): −0.29 | RNA-seq results: CAV1 expression (gene CAV1): −0.36 | RNA-seq results: CCND1 expression (gene CCND1): −0.01 | RNA-seq results: CD46 expression (gene CD46): −0.29 | RNA-seq results: CD81 expression (gene CD81): −0.08 | RNA-seq results: CD320 expression (gene CD320): −0.01 | RNA-seq results: CDAN1 expression (gene CDAN1): 0.23 | RNA-seq results: CDH1 expression (gene CDH1): 0.05 | RNA-seq results: CEP19 expression (gene CEP19): −0.09 | RNA-seq results: CEP83 expression (gene CEP83): −0.20 | RNA-seq results: CEP164 expression (gene CEP164): 0.39 | RNA-seq results: CEP290 expression (gene CEP290): −0.30 | RNA-seq results: CFB expression (gene CFB): −0.13 | RNA-seq results: CFHR2 expression (gene CFHR2): −0.38 | RNA-seq results: CHRM3 expression (gene CHRM3): −0.12 | RNA-seq results: CIDEC expression (gene CIDEC): −0.45 | RNA-seq results, CLDN1 expression (gene CLDN1): −0.36 | RNA-seq results, COG1 expression (gene COG1): −0.10 | RNA-seq results, COG5 expression (gene COG5): −0.36 | RNA-seq results: COG5 expression (gene COG5): −0.22 | RNA-seq results, COG6 expression (gene COG6): −0.54 | RNA-seq results: COG6 expression (gene COG6): −0.08 | RNA-seq results, COL1A1 expression (gene COL1A1): 0.33 | RNA-seq results: COL1A1 expression (gene COL1A1): 0.09 | RNA-seq results, COX6A1 expression (gene COX6A1): 0.39 | RNA-seq results: COX6A1 expression (gene COX6A1): −0.01 | RNA-seq results, CP expression (gene CP): −0.09 | RNA-seq results: CP expression (gene CP): −0.27 | RNA-seq results, CPS1 expression (gene CPS1): 0.01 | RNA-seq results: CPS1 expression (gene CPS1): −0.63 | RNA-seq results, CPT1A expression (gene CPT1A): −0.10 | RNA-seq results: CPT1A expression (gene CPT1A): 0.13 | RNA-seq results, CPT2 expression (gene CPT2): −0.19 | RNA-seq results: CPT2 expression (gene CPT2): 0.05 | RNA-seq results, CROT expression (gene CROT): −0.25 | RNA-seq results: CROT expression (gene CROT): −0.4 | RNA-seq results, CSPP1 expression (gene CSPP1): −0.06 | RNA-seq results: CSPP1 expression (gene CSPP1): −0.05 | RNA-seq results, CTC1 expression (gene CTC1): 0.10 | RNA-seq results: CTC1 expression (gene CTC1): 0.2 | RNA-seq results, CTDSP2 expression (gene CTDSP2): 0.00 | RNA-seq results: CTDSP2 expression (gene CTDSP2): −0.07 | RNA-seq results, CTH expression (gene CTH): 0.06 | RNA-seq results: CTH expression (gene CTH): 0.6 | RNA-seq results, CTNS expression (gene CTNS): −0.25 | RNA-seq results: CTNS expression (gene CTNS): 0.65 | RNA-seq results, CTSF expression (gene CTSF): 0.21 | RNA-seq results: CTSF expression (gene CTSF): 0.3 | RNA-seq results, CTSK expression (gene CTSK): 0.28 | RNA-seq results: CTSK expression (gene CTSK): 0.04 | RNA-seq results, CYB5A expression (gene CYB5A): 0.01 | RNA-seq results: CYB5A expression (gene CYB5A): 0.34 | RNA-seq results, CYB5R3 expression (gene CYB5R3): 0.00 | RNA-seq results: CYB5R3 expression (gene CYB5R3): 0.13 | RNA-seq results, CYP2B6 expression (gene CYP2B6): 0.07 | RNA-seq results: CYP2B6 expression (gene CYP2B6): 0.12 | RNA-seq results, CYP2C19 expression (gene CYP2C19): 0.25 | RNA-seq results: CYP2C19 expression (gene CYP2C19): −0.31 | RNA-seq results, CYP2D6 expression (gene CYP2D6): 0.24 | RNA-seq results: CYP2D6 expression (gene CYP2D6): 0.22 | RNA-seq results, CYP3A4 expression (gene CYP3A4): −0.53 | RNA-seq results: CYP3A4 expression (gene CYP3A4): 0.77 | RNA-seq results, CYP7B1 expression (gene CYP7B1): −0.16 | RNA-seq results: CYP7B1 expression (gene CYP7B1): −0.34 | RNA-seq results, CYP27A1 expression (gene CYP27A1): −0.21 | RNA-seq results: CYP27A1 expression (gene CYP27A1): 0.28 | RNA-seq results, CYP39A1 expression (gene CYP39A1): −0.20 | RNA-seq results: CYP39A1 expression (gene CYP39A1): −0.11 | RNA-seq results, DAO expression (gene DAO): 0.00 | RNA-seq results: DAO expression (gene DAO): 0.13 | RNA-seq results, DBT expression (gene DBT): −0.24 | RNA-seq results: DBT expression (gene DBT): −0.32 | RNA-seq results, DCDC2 expression (gene DCDC2): −0.04 | RNA-seq results: DCDC2 expression (gene DCDC2): −0.6 | RNA-seq results, DCXR expression (gene DCXR): −0.20 | RNA-seq results: DCXR expression (gene DCXR): 0.16 | RNA-seq results, DDC expression (gene DDC): −0.41 | RNA-seq results: DDC expression (gene DDC): −0.25 | RNA-seq results, DDO expression (gene DDO): 0.12 | RNA-seq results: DDO expression (gene DDO): 0.12 | RNA-seq results, DENR expression (gene DENR): −0.36 | RNA-seq results: DENR expression (gene DENR): −0.13 | RNA-seq results, DHCR7 expression (gene DHCR7): 0.04 | RNA-seq results: DHCR7 expression (gene DHCR7): 0.32 | RNA-seq results, DHCR24 expression (gene DHCR24): −0.16 | RNA-seq results: DHCR24 expression (gene DHCR24): −0.14 | RNA-seq results, DHODH expression (gene DHODH): 0.27 | RNA-seq results: DHODH expression (gene DHODH): 0.22 | RNA-seq results, DIS3L2 expression (gene DIS3L2): −0.14 | RNA-seq results: DIS3L2 expression (gene DIS3L2): −0.14 | RNA-seq results, DKC1 expression (gene DKC1): −0.11 | RNA-seq results: DKC1 expression (gene DKC1): −0.05 | RNA-seq results, DLAT expression (gene DLAT): −0.15 | RNA-seq results: DLAT expression (gene DLAT): −0.21 | RNA-seq results, DLD expression (gene DLD): −0.35 | RNA-seq results: DLD expression (gene DLD): −0.3 | RNA-seq results, DMGDH expression (gene DMGDH): −0.11 | RNA-seq results: DMGDH expression (gene DMGDH): −0.15 | RNA-seq results, DNAH5 expression (gene DNAH5): −0.05 | RNA-seq results: DNAH5 expression (gene DNAH5): −0.1 | RNA-seq results, DNM1L expression (gene DNM1L): −0.28 | RNA-seq results: DNM1L expression (gene DNM1L): −0.12 | RNA-seq results, DOLK expression (gene DOLK): 0.09
